Source: US8247569B2, “Cyclohexane derivative and pharmaceutical use thereof” (Toray Industries, Inc., priority 2008, dated 2012)
Like-named read-outs stand apart in the source and are kept apart here.

Experiments:
[1] = system: mouse sciatic nerve-ligation model (Seltzer model); test: mouse partial sciatic nerve ligation model (Seltzer model), von Frey test
[2] = human liver microsomal stability assay; assay type: in vitro ADME; conditions: liver microsomes, pH 7.4, human liver microsomes 0.5 mg/mL, test compound 2 μmol/L, 37° C., 0-30 min
Method: (§1) A liver microsomal stability assay, which is known to be an in vitro assay for evaluation of the stability of a compound against hepatic metabolism, was carried out to evaluate the stability of Compound (I) against human and mouse hepatic metabolism.
(§2) A total of 4 times of experiments were carried out for the combinations of the compound of Example 2-B or the compound of Comparative Example 29 as the test compound and human liver microsomes (Xenotech) or mouse liver microsomes (Xenotech) as the liver microsomes.
The respective reagents to be used for the liver microsomal stability assay were prepared as follows. That is, an appropriate amount of D-glucose 6-phosphate disodium salt (hereinafter referred to as G6P) was dissolved in distilled water at 100 mmol/L, to prepare 100 mmol/L aqueous G6P solution. In 5 mL of distilled water, 1000 units of Glucose 6-phosphate dehydrogenase from Yeast (hereinafter referred to as G6PDH) was dissolved, to prepare 200 units/mL aqueous G6PDH solution. An appropriate amount of MgCl2 was dissolved in distilled water at 100 mmol/L, to prepare 100 mmol/L aqueous MgCl2 solution. To 500 mL of 200 mmol/L aqueous K2HPO4 solution, 200 mmol/L aqueous KH2PO4 solution (about 130 mL) was added, and pH was adjusted to 7.4, to prepare 200 mmol/L KH2PO4/K2HPO4 buffer pH7.4 (hereinafter referred to as 200 mmol/L PB). β-nicotinamide-adenine dinucleotide phosphate, reduced form, tetrasodium salt (hereinafter referred to as (NADPH) was dissolved in distilled water such that the NADPH content becomes 10 mmol/L based on the purity (Purity NADPH) in the assay data described in the attached document, to prepare 10 mmol/L aqueous NADPH solution.
The liver microsomal stability assay was carried out according to the following procedure. First, the reagents listed in Table 12 (excluding microsomes) were mixed together to prepare a reaction mixture, and the reaction mixture was aliquoted in 130 μL volumes to 4 wells (which play roles as the wells for the 0-minute reaction, well for the 30-minute reaction, well for the 20-minute reaction and well for the 10-minute reaction, respectively) in a 96-well tube plate (BM Equipment Co., Ltd; hereinafter referred to as plate). The entire plate was covered with a silicone cap, and the plate was subjected to preincubation by being soaked in a water bath at 37° C. for 10 minutes.
After the preincubation, 3.75 μL of 20 mg/mL microsome suspension+16.25 μL of distilled water (20 μL in total) were added to the well for the 30-minute reaction, and the plate was covered with the cap, followed by soaking the plate in a water bath at 37° C. to initiate the reaction.
Ten minutes after the beginning of the reaction, 3.75 μL of 20 mg/mL microsome suspension+16.25 μL of distilled water (20 μL in total) were added to the well for the 20-minute reaction, and 20 minutes after the beginning of the reaction, 3.75 μL of 20 mg/mL microsome suspension+16.25 μL of distilled water (20 μL in total) were added to the well for the 10-minute reaction. The reaction was further continued by keeping the plate soaked in the water bath at 37° C.
Thirty minutes after the beginning of the reaction, the plate was removed from the water bath, and 120 μL of acetonitrile was added to each well, followed by covering the plate with the cap, stirring the plate for 10 seconds with Direct Mixer, and stopping the reaction by 10 minutes of ice cooling. After the reaction was stopped, 3.75 μL of 20 mg/mL microsome suspension+16.25 μL of distilled water (20 μL in total) were added to the well for the 0-minute reaction.
The reaction liquid in each well was centrifuged at 4° C. at 2500 rpm for 10 minutes, and the supernatant was transferred to a glass-coated microplate (TOMSIC Plate+) to begin LC/MS/MS analysis. The conditions for the LC/MS/MS analysis were as follows: […]

[3] = system: mouse acetic acid writhing model; test: mouse acetic acid writhing model (nociceptive pain); assay type: in vivo; conditions: male ddY mice, oral administration 45 min before 0.6% acetic acid i.p., dose suppressing 50% of writhing responses vs vehicle group, vehicle A or B
[4] = mouse liver microsomal stability assay; assay type: in vitro ADME; conditions: pH 7.4; mouse liver microsomes 0.5 mg/mL; test compound 2 μmol/L; 37° C., 0-30 min; read-out: Hepatic intrinsic clearance, Mouse
Method: as §1, §2
The respective reagents to be used for the liver microsomal stability assay were prepared as follows. That is, an appropriate amount of D-glucose 6-phosphate disodium salt (hereinafter referred to as G6P) was dissolved in distilled water at 100 mmol/L, to prepare 100 mmol/L aqueous G6P solution. In 5 mL of distilled water, 1000 units of Glucose 6-phosphate dehydrogenase from Yeast (hereinafter referred to as G6PDH) was dissolved, to prepare 200 units/mL aqueous G6PDH solution. An appropriate amount of MgCl2 was dissolved in distilled water at 100 mmol/L, to prepare 100 mmol/L aqueous MgCl2 solution. […]

[5] = evaluation of safety using mice, 5-day repeated oral administration; assay type: in vivo; conditions: for no-observed-adverse-effect-level: Crlj:CD1 (ICR) mice, repeated oral administration for 5 days, assumed value
Method: Crlj:CD1 (ICR) mice of 7 weeks old were subjected to repeated oral administration of Example 2-B or Comparative Example 29 for 5 days, and observation of clinical sign, measurement of body weight, hematology, blood chemistry, gross autopsy, measurement of organ weight and histopathology were carried out. Further, on Day 1 and Day 5 after the administration, TK measurement was carried out. Exposure to the respective compounds was confirmed.
The doses of Example 2-B were 0, 40, 200 and 1000 mg/kg/day, and those of Comparative Example 29 were 0, 30, 100 and 300 mg/kg/day. The solution to be administered was prepared using 0.5% aqueous methyl cellulose solution as a vehicle, such that the administration volume becomes 10 mL/kg.

[6] = pharmacokinetics (PK) test in mice; assay type: in vivo; conditions: mouse, plasma, female CD1 (ICR) mice, fasted; for clearance: intravenous, read-out: total body clearance (converted); for bioavailability: oral vs intravenous administration, from dose-normalized AUC0-24 hr, read-out: bioavailability (BA)
Method: Example 2-B or Comparative Example 29 was orally administered to mice, and the plasma level after the administration was measured to study the influence of improvement of the metabolic stability in liver microsomes on the change in the plasma level of the compound.
Female CD1 (ICR) mice of 7 weeks old which had been fed ad libitum with pellets (Oriental Yeast Co., Ltd.) and tap water were fasted for 17 hours before the administration. Feeding to the mice was begun again 4 hours after the administration.
In the case of intravenous administration of the solution, the animal was fixed in a holder, and the administration was carried out from the tail vein without anesthesia, using a syringe with an injection needle (25 G) attached thereto. In the case of oral administration, a syringe with a feeding needle attached thereto was used without anesthesia to force the solution into the stomach.
In terms of the mice to which the solution was intravenously administered, blood was collected a total of 8 times from the jugular vein or heart 5, 15 and 30 minutes and 1, 2, 4, 8 and 24 hours after the intravenous administration. In terms of the mice to which the solution was orally administered, blood was collected a total of 8 times from the jugular vein or heart 15, 30 and 45 minutes and 1, 2, 4, 8 and 24 hours after the oral administration. Further, from the jugular vein or heart of mice to which the solution was not administered, blood was collected as a blank. The collected blood was centrifuged at 4° C. at 12000 rpm for 5 minutes, and the obtained mouse plasma and blank plasma were stored at about −20° C. until preparation of samples for analysis. […]
From the results of the LC/MS/MS analysis, a calibration curve was prepared using Analysis 1.4 (Applied Biosystems). Based on the LC/MS/MS analysis and the prepared calibration curve, the concentration in each measurement sample was calculated using Analysis 1.4. For 3 times each of the experiments by intravenous administration and oral administration, the mean plasma level at each time point was calculated, and PK analysis was carried out using the obtained values (FIG. 6 and FIG. 7; each plot indicates the mean plasma level at each time point and its ±standard deviation; i.v. indicates test data by intravenous administration; and p.o. indicates test data by oral administration). The PK parameter was calculated using WinNonlin (Pharsight) by analysis independent of the models (intravenous administration: Model 201, oral administration: Model 200). Further, the bioavailability (BA) was calculated by normalization by dividing AUC0-24 hr from the time point of the intravenous administration or oral administration to the time point of the final blood collection by the dose.

[7] = read-out: Human hepatic intrinsic clearance

| microsomal CLint at 2 μmol/L [2, 7] [µL/min/mg] | SMILES | ED50 ([3]; Mus musculus, read-out: ED50) [mg/kg] | no-observed-adverse-effect-level [5] | clearance [6] [mL/min/kg] | bioavailability [6] [%] | also measured |
| --- | --- | --- | --- | --- | --- | --- |
| 2.06 | COc1ccc(-n2nc(C3(O)CCC(C(=O)O)CC3)cc2-c2ccc(C)cc2)cc1 (stereo not drawn) [Example 64, 4-hydroxy-4-(1-(4-methoxyphenyl)-5-p-tolyl-1H-pyrazol-3-yl)-cis-cyclohexanecarboxylic acid] | 1.19 |  |  |  | von Frey total score compared to the vehicle group ([1]; 1 hour after oral administration, doses as in Table 11): significantly improved; Score improvement rate ([1]; dose 1 mg/kg oral, 1 hour after administration, vehicle C): 57%; von Frey Total Score Observed 1 Hour after Oral Administration (mean ± standard error), Compound-administered group ([1]; dose 1 mg/kg oral, vehicle C (0.5% methyl cellulose, suspension), n = 5 to 6): 2.3 ± 0.5 |
|  | COc1ccc(-n2nc(C3(O)CCN(C(=O)N(C)O)CC3)c(F)c2-c2ccc(C)cc2)cc1 [Comparative Example 29, 4-(4-Fluoro-1-(4-methoxyphenyl)-5-(4-tolyl)-1H-pyrazol-3-yl)-1-(N-hydroxy-N-methylcarbamoyl)-4-piperidinol, reference compound] |  | less than 30 mg/kg/day | 94.5 | 54 | microsomal CLint at 2 μmol/L [4]: 267 µL/min/mg; analgesic effect 3 hours after the oral administration (von Frey test) ([1]; positive controls, gabapentin 30 mg/kg oral, dose of Comparative Example 29 not given): drastically decreased; time of strongest analgesic effect after oral administration (von Frey test) ([1]; positive controls, gabapentin 30 mg/kg oral, dose of Comparative Example 29 not given, FIGS. 1 to 4): 1 h; microsomal CLint at 2 μmol/L ([2]; read-out: Hepatic intrinsic clearance, Human): 110 µL/min/mg |
|  | COc1ccc(-n2nc(C3(O)CCC(O)CC3)cc2-c2ccc(C)cc2)cc1 (stereo not drawn) [Example 2-B, 1-(1-(4-methoxyphenyl)-5-(p-tolyl)-1H-pyrazol-3-yl)cyclohexane-cis-1,4-diol] |  | 200 mg/kg/day | 16.2 | 88 | ED50 [3]: 1.40 mg/kg; toxicity findings ([5]; mouse, in vivo, po, 1000 mg/kg/day): possibilities of induction of hepatotoxicity, effects on immune organs/tissues and induction of gastrointestinal toxicity were suggested |
| 33.3 | COc1ccc(-n2nc(C3(O)CCC(O)(C(F)(F)F)CC3)cc2-c2ccc(C)cc2)cc1 (stereo not drawn) [Example 62, 1-(1-(4-Methoxyphenyl)-5-(p-tolyl)-1H-pyrazol-3-yl)-4-(trifluoromethyl)cyclohexan-cis-1,4-diol] | 0.54 |  |  |  | analgesic effect 3 hours after the oral administration (von Frey test) ([1]; oral administration of Example 2-B and Example 62 in amounts of 0.3 and 1.0 mg/kg, respectively, FIG. 2, FIG. 3): a strong analgesic effect was maintained |

| SMILES | microsomal CLint at 2 μmol/L [2, 7] [µL/min/mg] | ED50 ([3]; Mus musculus, read-out: ED50) [mg/kg] | no-observed-adverse-effect-level [5] | clearance [6] [mL/min/kg] | bioavailability [6] [%] | also measured |
| --- | --- | --- | --- | --- | --- | --- |
| COc1ccc(-n2nc(C3(O)CCC(O)CC3)cc2-c2ccc(C)cc2)cc1 (stereo not drawn) [Example 2-A, 1-(1-(4-Methoxyphenyl)-5-(p-tolyl)-1H-pyrazol-3-yl)cyclohexan-trans-1,4-diol] | 45.1 | 1.8 |  |  |  | analgesic effect 3 hours after the oral administration (von Frey test) ([1]; oral administration of 0.3 mg/kg, FIG. 1): a strong analgesic effect was maintained |
